Data on four compounds can be found in patent US20220105053A1, “PHARMACEUTICAL COMPOSITION FOR PREVENTION OR TREATMENT OF ACIDOSIS” (HAIM BIO CO., LTD., priority 2018, published 2022).

The subject of this assay is A549 cancer cells. Put plainly: Lactic acid concentration-decreasing effect in A549 cell culture (lactate assay, luminescence, normalised to cell number). It is filed as cell-based, human. The conditions noted are these: 50 μM candidate substance, 24 hours, compared with the positive control (50 μM sodium oxamate), average of 3 experiments. How it is done: To this end, first, A549 cancer cells (adenocarcinomic human alveolar basal epithelial cells, Cat #CCL-185) obtained from the American Type Culture Collection (ATCC) were cultured in RPMI 1640 culture medium containing 10% fetal bovine serum and 1% antibiotic-antimycotic agent under an environment at 37° C. and 5% CO2, and passages were performed every 3 days. Lactic acid is produced in large amounts when glycolysis is activated in hypoxia. Cancer cells, which are densely packed with cells, are very active in energy-consuming activities, and thus are known to produce lactic acid in large amounts.
The cells were seeded in 24-well plates at a concentration of 3×10^5 cells/well, and incubation was performed overnight. Then, each plate was treated with each of the candidate substances (at a concentration of 50 μM) as shown in Table 1 which had been dissolved in dimethyl sulfoxide (DMSO). Incubation was further performed for 24 hours. For the negative control for the candidate substances, no treatment was performed; and for the positive control, treatment with sodium oxamate, which is conventionally known as a therapeutic agent for lactic acidosis, was performed at the same concentration (50 μM) or the […] higher concentration (50 mM). Subsequently, 50 μl of the cell culture solution obtained by being diluted with Dulbecco's Phosphate-Buffered Saline (DPBS), and 50 μl of the lactate assay reaction buffer (Promega, Madison, Wis., USA) were mixed and the mixture was added in a 96-well plate. Reaction was allowed to proceed at room temperature for 1 hour. Then, luminescence was measured with a spectrophotometer (Synergy HTX Multi-Reader, BioTek). At the same time, the number of cells in each sample was measured with a cell viability analysis kit (Cell Counting Kit-8), and calculation was performed so that the lactic acid measurement value in each sample could be compared with that in the negative control for the same number of cells.
For `Nc1c(O)cccc1C(=O)CC(N)C(=O)O` (racemic) [3-hydroxy-DL-kynurenine, 3-Hydroxy-DL-kynurenine], the “lactic acid concentration-decreasing effect” value was “about 20%”. `C=C(OP(=O)([O-])O)C(=O)O.O.[Na+]` [Phospho(enol)pyruvic acid monosodium salt hydrate]: the “lactic acid concentration-decreasing effect” value is listed as “about 15%”. Consider `N.N.[Cl][Pt][Cl]` [cis-diamminedichloridoplatinum, Cis-diamminedichloridoplatinum], for which the “lactic acid concentration-decreasing effect” value was “about 15%”. On to `CCN(CC)c1ccc(C=O)cc1` [diethylaminobenzaldehyde, Diethylaminobenzaldehyde], for which the “lactic acid concentration-decreasing effect” value is “about 20%”.
